Experimental data published in article PMC9266368, “Synthesis and Biological Evaluation of Small Molecules as Potential Anticancer Multitarget Agents” (International Journal of Molecular Sciences, 2022).

How the values were obtained:
[1] = test system: HT-29 (colon adenocarcinoma); experiment: MTT cell viability assay, HT-29; type: cell-based; details: Homo sapiens, HT-29, 48 h, 2 days incubation, average ±SD of three experiments
Protocol: (§1) The effects of triazole derivatives 1–26 on the cell viability were determined by MTT assay, and the IC50 values were determined toward the human tumor cell lines HT-29 (colon adenocarcinoma), A-549 (lung adenocarcinoma), and MCF-7 (breast adenocarcinoma), as well as toward the non-tumor cell line HEK-293 (human embryonic kidney cells).
(§2) In 96-well plates, 3 × 10^3 (A549 and HEK-293) or 5 × 10^3 (HT-29, MCF-7) cells per well were incubated with serial dilutions of the tested compounds in a total volume of 100 μL of their growth media. The 3-(4,5-dimethylthiazol-2-yl)-2,5-diphenyltetrazolium bromide (MTT; Sigma Chemical Co.) dye reduction assay in 96-well microplates was used. After 2 days of incubation (37 °C, 5% CO2 in a humid atmosphere), 10 μL of MTT (5 mg/mL in phosphate-buffered saline, PBS) was added to each well, and the plate was incubated for a further 3 h (37 °C). After that, the supernatant was discarded and replaced by 100 µL of DMSO to dissolve formazan crystals. The absorbance was then read at 550 nm by spectro-photometry. For all concentrations of compound, cell viability was expressed as the percentage of the ratio between the mean absorbance of treated cells and the mean absorbance of untreated cells. Three independent experiments were performed, and the IC50 values (i.e., concentration half inhibiting cell proliferation) were graphically determined by using GraphPad Prism 4 software (2019).

[2] = test system: A-549 (lung adenocarcinoma); experiment: MTT cell viability assay, A-549; type: cell-based; details: Homo sapiens, A549, 48 h, 2 days incubation, average ±SD of three experiments
Protocol: as §1, §2

[3] = test system: MCF-7 (breast adenocarcinoma); experiment: MTT cell viability assay, MCF-7; type: cell-based; details: Homo sapiens, MCF7, 48 h, 2 days incubation, average ±SD of three experiments
Protocol: as §1, §2

[4] = test system: HEK-293 (human embryonic kidney cells); experiment: MTT cell viability assay, HEK-293; type: cell-based; details: HEK293, 48 h, 2 days incubation, non-tumor cell line, average ±SD of three experiments
Protocol: as §1, §2

[5] = target: T1, membrane PD-L1 (mPD-L1) (Homo sapiens, UniProt Q9NZQ7); experiment: Membrane PD-L1 relative quantification by flow cytometry; type: cell-based; details: 24 h, 100 or 10 μM (Table 7), percentage referred to DMSO control
T1 construct: endogenous in cells; host or cells: HT-29, A-549, MCF-7
Protocol: Based on antiproliferative activity of synthetized derivatives, we decided to study the effect of the amino derivatives 14–26 on the expression of both membrane targets PD-L1 and VEGFR-2 (mPD-L1 and mVEGFR-2). The evaluation was performed on three cancer cell lines (HT-29, A-549, and MCF-7) by flow cytometry after 24 h of treatment with the corresponding compounds. Compounds were used at a 100 or 10 μM concentration depending on their IC50 value (see Table 1 in Materials and Methods section). The presence of both targets in the membrane was relatively determined by using DMSO-treated cells as a negative control.
(§3) To study the effect of the compounds on every biological target in cancer cell lines the compounds were used at a 100 or 10 μM dose, depending on their IC50 and the treated cell line.
(§4) For the assay, 10^5 cells per well were incubated for 24 h with the corresponding dose of the tested compound in a total volume of 500 μL of their growth media.
To detect membrane PD-L1 and VEGFR-2, after the cell treatments, they were collected, fixed with 4% in PBS paraformaldehyde, and stained with FITC Mouse monoclonal Anti-Human VEGFR-2 (ab184903) and Alexa Fluor® 647 Rabbit monoclonal Anti-PD-L1 (ab215251).

[6] = target: T2, total PD-L1 (tPD-L1) (Homo sapiens, UniProt Q9NZQ7); experiment: Total PD-L1 relative quantification by flow cytometry; type: cell-based; details: for tPD-L1 relative detection, A-549 / tPD-L1 relative detection, HT-29 / tPD-L1 relative detection, MCF-7: 24 h, 100 or 10 μM (Table 7), relative to DMSO control
T2 construct: endogenous in cells; host or cells: HT-29, A-549, MCF-7
Protocol: (§5) The study was carried out again on HT-29, A-549, and MCF-7 cell lines by flow cytometry after 24 h of treatment with the corresponding compounds. The presence of the targets in the whole cell were relatively determined by using DMSO-treated cells as a negative control and BMS-8 as a positive one for PD-L1 (Table 3).
as §3, §4
(§6) For the detection of total PD-L1, VEGFR-2, and c-Myc, the procedure was the same as for membrane targets, but after fixation, a treatment with 0,5% in PBS TritonTM X-100 was performed. The antibodies used for PD-L1 and VEGFR-2 were the ones previously described, and for the detection of c-Myc, it was FITC Rabbit monoclonal anti-c-Myc (ab223913).

[7] = test system: c-Myc; experiment: c-Myc relative quantification by flow cytometry; type: cell-based, human; details: 24 h, 100 or 10 μM (Table 7), relative to DMSO control
Protocol: as §5, §3, §4, §6

[8] = test system: HT-29 cells co-cultured with Jurkat T cells; experiment: Co-culture HT-29 + PD-1 Jurkat T cells: living HT-29 cells; type: cell-based, human; details: 100 μM, 24 h; related to non-treated samples
Protocol: (§7) Cellular PD-1/PD-L1 blocking activity was studied in a co-culture system with PD-1 Jurkat T cells stimulated by interferon γ and PD-L1-expressing cancer cells. Thereby, we selected chloro derivatives 21–23 to study the proliferation of cancer cells co-cultured in the presence of PD-1 expressing Jurkat T cells in order to evaluate whether the observed PD-L1 inhibition is translated to the blockage of PD-1/PD-L1 system. […] Thus, tumor cells HT-29 were treated for 24 h with the selected compounds at 100 μM in the presence of Jurkat T cells and then living cells were counted by using cytometry and a Neubauer chamber.

[9] = test system: Jurkat T cells; experiment: Co-culture HT-29 + PD-1 Jurkat T cells: living Jurkat cells; type: cell-based; details: 100 μM, 24 h; related to non-treated samples
Protocol: as §7

[10] = target: T3, PD-L1 (Homo sapiens, UniProt Q9NZQ7); experiment: Protein thermal shift (PTS) assay; type: binding
T3 construct: purchased ab167713
Excerpt: This assay measures the melting point (Tm) of the target protein which is a proxy of its stability that can be altered by the binding of a ligand. A change in the melting point relative to the unliganded form implies that a ligand has bound itself to the targeted protein. According to the fundamentals of this technique, an increase in Tm means that the binding of the ligand leads to a stabilization of the target protein, while a decrease in Tm is probably due to the fact that the binding between the ligand and its target leads to a destabilization of the protein. In this case, the tested compounds were able to change the PD-L1 melting temperature.
PTS assay was performed by following the instructions indicated in Protein Thermal ShiftTM Dye Kit (Applied Biosystems reference 4461146), using 2 μL of a 0.1 mg/mL of an aqueous solution of PD-L1 (reference ab167713) and 1.5 μL of a 0.1 mg/mL aqueous solution of the corresponding product. The melting curves were registered by a StepOneTM Real-Time PCR System.

[11] = target: T4, membrane VEGFR-2 (mVEGFR-2) (Homo sapiens, UniProt P35968); experiment: Membrane VEGFR-2 relative quantification by flow cytometry; type: cell-based; details: 24 h, 100 or 10 μM (Table 7), sorafenib 10 μM, percentage referred to DMSO control
T4 construct: endogenous in cells; host or cells: HT-29, A-549, MCF-7
Protocol: The presence of both targets in the membrane was relatively determined by using DMSO-treated cells as a negative control.
as §4

T4 sequence (P35968 20-1356): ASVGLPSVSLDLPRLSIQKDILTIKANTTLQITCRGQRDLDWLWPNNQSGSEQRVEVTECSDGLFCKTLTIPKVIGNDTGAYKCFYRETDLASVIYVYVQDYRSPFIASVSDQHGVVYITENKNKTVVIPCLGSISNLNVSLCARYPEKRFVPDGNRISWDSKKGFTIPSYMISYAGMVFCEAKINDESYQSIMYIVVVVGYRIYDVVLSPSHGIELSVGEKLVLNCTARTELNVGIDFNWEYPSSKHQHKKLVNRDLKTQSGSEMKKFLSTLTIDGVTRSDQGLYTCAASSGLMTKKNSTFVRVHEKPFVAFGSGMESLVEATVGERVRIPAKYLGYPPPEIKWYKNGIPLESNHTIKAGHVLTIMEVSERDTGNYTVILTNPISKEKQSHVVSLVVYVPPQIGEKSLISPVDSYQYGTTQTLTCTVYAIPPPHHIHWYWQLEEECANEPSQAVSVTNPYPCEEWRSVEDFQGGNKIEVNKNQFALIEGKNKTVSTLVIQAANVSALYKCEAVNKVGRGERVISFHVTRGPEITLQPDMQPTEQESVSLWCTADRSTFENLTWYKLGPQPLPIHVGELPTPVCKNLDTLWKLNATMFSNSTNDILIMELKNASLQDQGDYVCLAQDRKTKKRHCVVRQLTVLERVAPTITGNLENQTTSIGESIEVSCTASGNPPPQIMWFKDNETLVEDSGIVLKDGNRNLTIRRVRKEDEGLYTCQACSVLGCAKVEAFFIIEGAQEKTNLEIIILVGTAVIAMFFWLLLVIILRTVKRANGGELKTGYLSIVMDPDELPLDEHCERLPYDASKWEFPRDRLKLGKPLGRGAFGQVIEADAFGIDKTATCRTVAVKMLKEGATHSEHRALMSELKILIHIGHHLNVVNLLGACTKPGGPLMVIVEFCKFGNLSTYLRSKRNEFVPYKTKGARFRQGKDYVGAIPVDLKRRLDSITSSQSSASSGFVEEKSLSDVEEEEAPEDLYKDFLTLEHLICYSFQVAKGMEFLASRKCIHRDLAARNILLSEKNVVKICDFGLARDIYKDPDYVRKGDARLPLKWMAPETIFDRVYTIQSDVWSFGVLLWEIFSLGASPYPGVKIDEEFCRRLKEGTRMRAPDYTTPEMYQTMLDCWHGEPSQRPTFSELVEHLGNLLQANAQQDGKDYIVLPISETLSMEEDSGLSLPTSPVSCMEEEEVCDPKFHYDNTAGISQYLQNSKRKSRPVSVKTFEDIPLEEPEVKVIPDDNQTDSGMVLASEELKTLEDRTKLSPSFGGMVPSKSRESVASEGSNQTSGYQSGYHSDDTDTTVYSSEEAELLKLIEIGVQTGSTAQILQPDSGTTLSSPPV
T1 sequence (Q9NZQ7 19-290): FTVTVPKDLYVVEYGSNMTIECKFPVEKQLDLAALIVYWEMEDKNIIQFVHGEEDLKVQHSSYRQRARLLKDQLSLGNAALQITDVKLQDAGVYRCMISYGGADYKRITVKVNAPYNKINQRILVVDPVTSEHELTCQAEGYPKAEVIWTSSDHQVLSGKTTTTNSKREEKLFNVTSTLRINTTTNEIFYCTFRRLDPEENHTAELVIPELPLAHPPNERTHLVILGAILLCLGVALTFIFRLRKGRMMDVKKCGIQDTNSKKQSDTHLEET
T2 sequence (Q9NZQ7 19-290): as above
T3 sequence (Q9NZQ7 19-290): as above

| Compound | IC50 [1] | IC50 [2] | IC50 [3] | IC50 [4] | mPD-L1 relative detection, A-549 [5] | mPD-L1 relative detection, HT-29 [5] | mPD-L1 relative detection, MCF-7 [5] | tPD-L1 relative detection, A-549 ([6]; A-549) | tPD-L1 relative detection, HT-29 [6] | tPD-L1 relative detection, MCF-7 [6] | c-Myc relative detection, A-549 [7] | c-Myc relative detection, HT-29 [7] | c-Myc relative detection, MCF-7 [7] | mVEGFR-2 relative detection, A-549 [11] | mVEGFR-2 relative detection, HT-29 [11] | mVEGFR-2 relative detection, MCF-7 [11] | melting point | further results |
| --- | --- | --- | --- | --- | --- | --- | --- | --- | --- | --- | --- | --- | --- | --- | --- | --- | --- | --- |
| Cc1c(COc2ccc(CN3CCCCC3C(=O)O)cc2Br)cccc1-c1ccccc1 (centres unmarked) [BMS-8, reference compound] | 19 ± 2 µM | 6 ± 1 µM | 20 ± 3 µM | 60 ± 10 µM | 99 ± 10% | 95 ± 12% | 90 ± 8% | 66 ± 8% | 62 ± 3% | 68 ± 5% | 135 ± 15% | 99 ± 7% | 60 ± 7% | – | – | – | – | Relative number of living HT-29 cells in co-culture with Jurkat T [8]: 51 ± 8%; Relative number of living Jurkat cells in co-culture with HT-29 [9]: 110 ± 4%; PTS Tm ([10]; PD-L1 melting temperature, DMSO 34 °C): 38 °C; PTS ΔTm ([10]; shift of PD-L1 melting temperature vs DMSO): +4 °C |
| Nc1ccc(-c2cn(Cc3ccccc3Br)nn2)cc1 [Compound 24, 4-(1-(2-bromobenzyl)-1H-1,2,3-triazol-4-yl)aniline] | 3.7 µM | 0.45 µM | 5 ± 1 µM | > 100 µM | 88 ± 12% | 86 ± 11% | 91 ± 10% | 56 ± 7% | 45 ± 3% | >100% | >100% | >100% | 57 ± 8% | >100% | 84 ± 8% | >100% | 133 to 134 °C | Inhibition of total PD-L1, A-549 ([6]; A-549, compared to non-treated cells): ~50% |
| Nc1ccc(-c2cn(Cc3ccccc3)nn2)cc1 [Compound 14, 4-(1-benzyl-1H-1,2,3-triazol-4-yl)aniline] | 2 ± 1 µM | > 100 µM | 1 µM | > 100 µM | >100% | >100% | 94 ± 5% | 98 ± 3% | >100% | >100% | >100% | >100% | 60 ± 3% | >100% | 95 ± 6% | >100% | 180 to 181 °C | – |
| Cc1cccc(Cn2cc(-c3ccc(N)cc3)nn2)c1 [Compound 16, 4-(1-(3-methylbenzyl)-1H-1,2,3-triazol-4-yl)aniline] | 9 ± 6 µM | 0.7 µM | 2.1 µM | 63 ± 34 µM | 86 ± 17% | 66 ± 21% | >100% | >100% | >100% | >100% | >100% | >100% | 78 ± 7% | >100% | 93 ± 1% | >100% | 128 to 129 °C | – |
| COc1cccc(Cn2cc(-c3ccc(N)cc3)nn2)c1 [Compound 19, 4-(1-(3-methoxybenzyl)-1H-1,2,3-triazol-4-yl)aniline] | > 100 µM | > 100 µM | 12 ± 5 µM | > 100 µM | >100% | >100% | 96 ± 5% | >100% | 85 ± 17% | >100% | >100% | >100% | 55 ± 5% | >100% | 94 ± 1% | >100% | 103 to 105 °C | – |
